Changes are numbered by the printed parent chain. Read-outs that look alike come from different tables or passages of the source.
Key:
[1] = test system: α1aAR F308 / F312 substituted receptors; conditions: cited from earlier work
human α1aAR WT [2] = target: T1, human α1aAR WT (Homo sapiens, UniProt P35348); assay: NE-induced desensitization of IP response, WT; format: cell-based; conditions: 10 min 10 μM NE pretreatment, compared with unpretreated
T1 construct: expressed in transfected cells
T1 sequence (P35348 1-466): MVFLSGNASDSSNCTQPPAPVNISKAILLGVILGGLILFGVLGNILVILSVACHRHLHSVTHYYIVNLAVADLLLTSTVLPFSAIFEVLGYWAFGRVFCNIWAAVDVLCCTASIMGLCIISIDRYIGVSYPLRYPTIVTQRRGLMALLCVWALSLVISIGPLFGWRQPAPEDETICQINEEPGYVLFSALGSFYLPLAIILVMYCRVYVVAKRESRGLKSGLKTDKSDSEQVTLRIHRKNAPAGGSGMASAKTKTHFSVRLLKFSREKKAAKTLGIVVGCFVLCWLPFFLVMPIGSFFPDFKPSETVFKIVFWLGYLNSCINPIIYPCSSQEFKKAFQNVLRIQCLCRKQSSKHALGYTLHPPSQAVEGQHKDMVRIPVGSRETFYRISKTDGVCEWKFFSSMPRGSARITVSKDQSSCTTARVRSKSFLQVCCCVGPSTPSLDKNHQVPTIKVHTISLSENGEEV
Protocol: (§3) The extent of desensitization was expressed as percent of reduction of IP response in pretreated cells compared with the response in naive cells. n=3-6. […] High-expression clones. […] Low-expression clones. Measurement of Intracellular Inositol Phosphate (IP) Production. […] Measurement of intracellular IP production was performed under serum-free conditions. […] For all experiments, membranes were collected for receptor quantititation and cells were counted at the time of assay.

human α1aAR SNPs [3] = assay: NE-induced desensitization of IP response, receptors with any SNP; format: cell-based; conditions: high or low expression level
Protocol: as §3

human α1aAR SNPs [4] = assay: NE-stimulated IP production, transiently expressed polymorphic receptors; format: cell-based; conditions: any polymorphic receptor, transient expression 1.30-1.98 pmol/mg protein
Protocol: Effect of human α1aAR SNPs on IP signaling in transiently transfected rat-1 fibroblasts (receptor densities 1.30-1.98 pmol/mg protein). […] For each construct, IP assay, binding assay and cell number were measured in paralleled plates. […] Basal IP release.
Transient transfection was also used to express receptors for binding and IP experiments in order to verify consistent behavior using alternative methods of protein expression.
Measurement of Intracellular Inositol Phosphate (IP) Production. Rat-1 cells expressing either the WT or mutated α1aAR grown on 12-well plates were labeled with [^3H]inositol for 20-24 h with 2.5 μCi/ml in complete DMEM. Measurement of intracellular IP production was performed under serum-free conditions. […] For all experiments, membranes were collected for receptor quantititation and cells were counted at the time of assay.

human α1aAR WT [5] = target: T1, human α1aAR WT; assay: [125I]HEAT saturation binding on membranes, WT high expressing clone; conditions: membranes from WT α1aAR high expressing clone, rat-1 fibroblasts, 1.77±0.24 pmol/mg protein
Protocol: (§1) Cell Culture and Transfection. Rat-1 fibroblasts were cultured in DMEM supplemented with 10% FBS at 37° C. Cells were transfected with either the WT (reference sequence with all major alleles, GenBank accession number L31774) or mutated α1aAR in pcDNA3 by calcium phosphate precipitation. For stable transfection, clones resistant to G418 (0.8 mg/ml) were isolated and tested for receptor expression. Two different expression levels were chosen for receptor functional investigation. Low receptor expression level was defined a priori as <0.5 pmol/mg total protein, while high-level expression was defined as >1.5 pmol/mg protein.
(§2) Membrane Preparation and Radioligand Binding. Rat-1 membrane preparation and ligand binding assay using the α1AR selective antagonist, [^125I]HEAT, were performed as previously described (Schwinn et al, J. Pharmacol. Exp. Ther. 272:134-142 (1995)).
Pharmacological Characterization. In order to examine whether these polymorphic α1aARs have altered ligand binding characteristics, saturation binding isotherms were first performed to determine the dissociation constant (Kd) for the antagonist [^125I]HEAT, followed by competition assays designed to determine binding affinities for a series of α1aAR agonists and antagonists.

human α1aAR SNPs [6] = assay: [125I]HEAT saturation binding on membranes, receptors containing each SNP; conditions: expression 1.53-2.37 pmol/mg
Protocol: In Vitro Site-Directed Mutagenesis in the aoclar. Site-directed mutagenesis was utilized to introduce mutations corresponding to each SNP in hemagglutinin-tagged human α1aAR previously placed in the expression vector pcDNA3 (Price et al, J. Biol. Chem. 277:9570-9579 (2002)). Mutagenesis was performed using the QuickChange™ Site-Directed Mutagenesis Kit (Stratagene) as recommended by the manufacture. All mutations were confirmed by DNA sequencing (Duke University DNA Analysis Facility).
as §1, §2
Pharmacological Characterization. […]

human α1aAR SNP V311I = target: T2, human α1aAR SNP V311I (Homo sapiens, UniProt P35348, V311I); assay: Competition binding vs [125I]HEAT, SNP V311I; conditions: high expressing clone
T2 construct: expressed in transfected cells
T2 sequence (P35348 1-466 V311I): T1 sequence (P35348 1-466) with V311I

[7] = test system: α1aAR F163 (TM4) / F187 (TM5) mutants; conditions: Waugh et al 2000; cited from earlier work
human α1aAR SNPs [8] = conditions: receptors containing any SNP, high expressing clones

COc1ccccc1N1CCN(CCCNc2c(C)c(=O)n(C)c(=O)n2C)CC1 [5-methylurapidil]
affinity on substitution of F308 and F312 ([1]; Waugh et al 2001): decreased affinity

COc1ccccc1N1CCN(CCN2C(=O)CC3(CCCC3)CC2=O)CC1 [BMY7378]
affinity on substitution of F308 and F312 ([1]; Waugh et al 2001): decreased affinity

NC[C@H](O)c1ccc(O)c(O)c1 [NE, (−)-norepinephrine]
lower IP production after NE pretreatment (desensitization) (human α1aAR WT [2]; high-expression level): 33.5±3.2% | lower IP production after NE pretreatment (desensitization) (human α1aAR WT [2]; low-expression level): 31.0±3.1% | agonist-induced desensitization, SNP receptors vs WT (human α1aAR SNPs [3]): no difference in agonist-induced desensitization | maximum IP response vs WT (human α1aAR SNPs [4]): no significant change

COc1cccc(OC)c1OCCNCC1COc2ccccc2O1 (stereo not drawn) [WB4101]
affinity on substitution of F308 and F312 ([1]; Waugh et al 2001): decreased affinity

O=C1c2ccccc2CCC1CNCCc1ccc(O)c(I)c1 (stereo not drawn) [[^125I]HEAT, ^125I-(2-β-(4-hydroxyphenyl)-ethylamineomethyl)-tetralone]
Kd (human α1aAR WT [5]): 0.0421 ± 0.0065 nM

O=C1c2ccccc2CCC1CNCCc1ccc(O)c([125I])c1 (stereo not drawn) [[^125I]HEAT, ^125I-(2-β-(4-hydroxyphenyl)-ethylamineomethyl)-tetralone]
Kd values for [125I]HEAT compared with WT (human α1aAR SNPs [6]): not significantly different from WT | affinity on substitution of F308 and F312 ([1]; Waugh et al 2001): not

CNC[C@H](O)c1ccc(O)c(O)c1 [epinephrine, (−)-epinephrine]
Ki increase vs WT (decrease in receptor affinity) (human α1aAR SNP V311I): ~3 fold | decrease in affinity on mutation of F163 or F187 [7]: 10 fold

Cc1cc(C(C)(C)C)c(O)c(C)c1CC1=NCCN1 [oxymetazoline]
change in affinity vs WT (human α1aAR SNPs [8]): no change in the affinity

Cc1ccc(N(CC2=NCCN2)c2cccc(O)c2)cc1 [phentolamine]
affinity on substitution of F308 and F312 ([1]; Waugh et al 2001): not

COc1cc2nc(N3CCN(C(=O)c4ccco4)CC3)nc(N)c2cc1OC [prazosin]
affinity on substitution of F308 and F312 [1]: decreased affinity

From patent publication US20040265846A1, “Adrenergic receptors” (DUKE UNIVERSITY, priority 2002, published 2004)
